Reference: patent US12637438B2, “Protoporphyrinogen oxidase inhibitors” (Enko Chem, Inc., priority 2021, dated 2026)

Assays:
Type in all cases: in vivo
[1] = system: Setaria Italica (Foxtail millet); test: Leaf penetration and translocation with and without crop oil concentrate adjuvant (COC); conditions: for Phloem mobility COC / Xylem mobility COC / Phloem mobility No-COC / Xylem mobility No-COC: 1.5 mM, 3×2 μL droplets on leaf, seven days after treatment; for Phloem mobility COC / Xylem mobility COC: with 1% v/v COC; for Phloem mobility No-COC / Xylem mobility No-COC: without COC; for leaf translocation: compared to compounds 920-4 and 920-6
Protocol: Selected compounds of the invention, along with compounds 920-4 and 920-6 from Japanese Patent Application No. 06321920, were tested for leaf penetration, translocation, and herbicidal activity in a grass weed species when applied with or without an adjuvant to increase the compound cuticle penetration.
Four to five PPO susceptible Setarialtalica (Foxtail millet) seed (Ernst Conservation Seeds, Meadville, PA) were sown in each of the 1.5×1.5-inch 6 cell plug inserts containing Miracle-Gro™ potting mix (Scotts Miracle-Gro Company, Marysville, OH, USA) and grown in a Conviron growth chamber with appropriate growth conditions (temperature of 26/22° C. with photoperiod 16/8 h light day/night and light intensity of 300 μmol m^−2 s^−1 supplemented by LED lamps). Relative humidity in the growth chamber was maintained at around 65%. Plants were grown until 1-2 leaf stage (one expanded leaf and one emerging leaf) and thinned to single plant per cell.
Test compounds were formulated to a final concentration of 1.5 mM in 25% Acetone, 0.1% Tween-20 and 2.5% Ammonium sulphate (AMS) with or without the addition of 1% v/v Crop oil concentrate (COC, Agridex). A total of 6 μL was applied as 3×2 μL droplets on the adaxial surface of an emerged Setaria Italica leaf for each of the two compound solutions (with and without COC). Six replicate plants were treated with each compound. Treatment consisting of the above formulation excluding active compound was applied as a treatment control (TC). Plants were placed back in the growth chamber and, seven days after treatment, were evaluated for overall % visual injury compared to TC. Plants were also evaluated for rapid necrosis representative of PPO inhibition at the site of, acropetal to, and basipetal to the droplet application site to estimate the general, xylem, and phloem compound mobility, respectively. In general, compounds with necrosis only at the site of action were considered to be poorly mobile whereas necrosis in the emerging leaf indicates symplastic phloem movement and necrosis from leaf base to tip only on the applied leaf indicates apoplastic xylem movement.
The data are presented in Table 4 are relative to the TC treatment for which the plant and leaf injury percent is consider 0%. “A” represents a percentage leaf or plant injury between 80 and 100%; “B” represents a percentage leaf or plant injury of 20-80%; “C” represents a percentage control below 20%.

[2] = system: Amaranthus retroflexus (AMARE); test: Post-emergence herbicidal activity, spray at 100 ppm; conditions: % visual injury compared to treatment control 7 days after treatment
Protocol: (§1) Selected compounds of the invention were screened at 100 ppm concentration against Amaranthus retroflexus (AMARE), Setaria italica (SETIT), and Kochia/Bassia scoparia (KCHSC).
(§2) Accordingly, PPO susceptible weed seeds were sown in 5″×5″ pots by quadrant containing Miracle-Gro potting mix (Scotts Miracle-Gro Company, Marysville, OH, USA) and grown in a Conviron growth chamber with appropriate growth conditions (temperature of 26/22° C. with photoperiod 16/8 h light day/night and light intensity of 300 μmol m^−2 s^−1 supplemented by LED lamps). Relative humidity in the growth chamber was maintained at around 65%. Plants were grown until 2-4 leaf stage and thinned to 5-8 plants per quadrant per species.
(§3) Compounds were formulated in 25% Acetone, 1% Crop oil concentrate (COC-Agridex), 0.1% Tween-20, and 2.5% Ammonium sulphate (AMS). Three replicate pots were treated with each compound. Treatment consisting of the above formulation excluding active compound was applied as a treatment control (TC). Plants were treated with the test compound solution in a laboratory spray chamber fitted with 8003 flat fan nozzles calibrated to deliver 187-200 L ha^−1 at 269 kPa. Plants were placed back in the growth chamber and evaluated for % visual injury compared to TC 7 days after treatment (DAT). The data presented in Table 3 in which A represents a percentage control, where 100% control indicates complete inhibition of weed growth.

Setaria italica (SETIT) = test: as above; conditions: % visual injury compared to treatment control 7 days after treatment
Protocol: as §1, §2, §3

[3] = system: Kochia/Bassia scoparia (KCHSC); test: as above; conditions: % visual injury compared to treatment control 7 days after treatment
Protocol: as §1, §2, §3

[4] = system: Amaranthus retroflexus (AMARE), Setaria italica (SETIT), and Kochia/Bassia scoparia (KCHSC); test: Post-emergence herbicidal activity against weed species, overall statement; conditions: concentration of 100 parts per million (PPM)
Protocol: as §1, §2, §3

leaf translocation [1] | SMILES | Phloem mobility COC [1] | Xylem mobility COC [1] | Phloem mobility No-COC [1] | Xylem mobility No-COC [1] | Post-emergence % control (100 PPM) AMARE [2] [%] | Post-emergence % control (100 PPM) SETIT (Setaria italica (SETIT)) [%] | Post-emergence % control (100 PPM) KCHSC [3] [%] | herbicidal activity against weed species [4]
 | C#CCN1C(=O)COc2cc(F)c(-c3c(Cl)cc(C(F)(F)F)cc3Cl)cc21 [Compound 920-4, reference compound] | A (“A” represents a percentage leaf or plant injury between 80 and 100%) | A (“A” represents a percentage leaf or plant injury between 80 and 100%) | C (“C” represents a percentage control below 20%) | C (“C” represents a percentage control below 20%) | 89 | 38 | 52 | 
significant improved leaf translocation | C#CCN1C(=O)COc2cc(F)c(-c3c(F)cc(F)c(F)c3F)cc21 [Compound 52, 7-fluoro-4-(prop-2-yn-1-yl)-6-(2,3,4,6-tetrafluorophenyl)-2H-benzo[b][1,4]oxazin-3(4H)-one] | A (“A” represents a percentage leaf or plant injury between 80 and 100%) | A (“A” represents a percentage leaf or plant injury between 80 and 100%) | A (“A” represents a percentage leaf or plant injury between 80 and 100%) | A (“A” represents a percentage leaf or plant injury between 80 and 100%) | 100 | 72 | 93 | excellent herbicidal activity
significant improved leaf translocation | C#CCN1C(=O)C(F)(F)Oc2cc(F)c(-c3c(F)cc(F)c(F)c3F)cc21 [Compound 37, 2,2,7-trifluoro-4-(prop-2-yn-1-yl)-6-(2,3,4,6-tetrafluorophenyl)-2H-benzo[b][1,4]oxazin-3(4H)-one] | A (“A” represents a percentage leaf or plant injury between 80 and 100%) | A (“A” represents a percentage leaf or plant injury between 80 and 100%) | A (“A” represents a percentage leaf or plant injury between 80 and 100%) | A (“A” represents a percentage leaf or plant injury between 80 and 100%) | 100 | 58 | 92 | excellent herbicidal activity
 | C#CCN1C(=O)COc2cc(F)c(-c3ccc(Cl)c(Cl)c3Cl)cc21 [Compound 920-6, reference compound] | A (“A” represents a percentage leaf or plant injury between 80 and 100%) | A (“A” represents a percentage leaf or plant injury between 80 and 100%) | C (“C” represents a percentage control below 20%) | C (“C” represents a percentage control below 20%) | 85 | 18 | 21 | 

SMILES | leaf translocation [1] | Phloem mobility COC [1] | Xylem mobility COC [1] | Phloem mobility No-COC [1] | Xylem mobility No-COC [1] | Post-emergence % control (100 PPM) AMARE [2] [%] | Post-emergence % control (100 PPM) SETIT (Setaria italica (SETIT)) [%] | Post-emergence % control (100 PPM) KCHSC [3] [%] | herbicidal activity against weed species [4]
C#CCN1C(=O)C(F)(F)Oc2cc(F)c(-c3c(F)c(F)c(F)c(F)c3F)cc21 [Compound 2, 2,2,7-trifluoro-6-(perfluorophenyl)-4-(prop-2-yn-1-yl)-2H-benzo[b][1,4]oxazin-3(4H)-one] | significant improved leaf translocation | A (“A” represents a percentage leaf or plant injury between 80 and 100%) | A (“A” represents a percentage leaf or plant injury between 80 and 100%) | A (“A” represents a percentage leaf or plant injury between 80 and 100%) | A (“A” represents a percentage leaf or plant injury between 80 and 100%) | 98 | 58 | 75 | excellent herbicidal activity
